For one assay, the system named is growth hormone. Description: in vivo activity: plasma growth hormone by radioimmunoassay in nembutal-treated rats. Particulars: 500 μg in PEG 400/water (1 ml) injected; rats 200-240 g; nembutal 50 mg/kg i.p. at 1 h 40 min; killed 20 min later; 19 treated rats; control average 117.9 ± 13.6. The protocol:
(§1) The growth hormone inhibiting activity of the compound of Example 3 was determined by radioimmunoassay in a rat pituitary cell culture system as described by Vale et al, Endocrinology 91, pp 562 (1972) and Grant et al, Biochemical and Biophysical Research Communications 51, pp 100-106 (1973). The compound of Example 3 was tested at 10 ng/ml, 100 ng/ml and 1000ng/ml and was active at these concentrations in inhibiting growth hormone release. The in vivo activity of the compound of Example 3 was determined by dissolving 500 μg of this compound in a mixture of polyethylene glycol (PEG 400) and water (1 ml) and the mixture was injected in rats weighing 200-240 g. Control rats were injected with 80% PEG 400. One hour and forty minutes later the rats were injected i.p. with nembutal at 50 mg/kg. Twenty minutes after the nembutal injection the rats were killed and their blood plasmas were assayed for growth hormone by radioimmunoassay.
The average of 19 treated rats was 80.1 ± 9.0 × 10^-^9 g GH/ml and the average of 11 control rats was 117.9 ± 13.6 × 10^^-9 g GH/ml.

The subject of assay [1] is growth hormone release in rat pituitary cell culture. Kind of assay: growth hormone inhibiting activity by radioimmunoassay in a rat pituitary cell culture system. Format: cell-based. Particulars: tested at 10 ng/ml, 100 ng/ml and 1000ng/ml. How it is done: as §1
For another assay, the system named is growth hormone (GH). Particulars: background; Brazeau et al., Science 179 (1973); U.S. Pat. No. 3,842,066; cited from earlier work.

No end group written: not given here.

“AGYKNFFWKTFTSY [Example 3, L-alanylglycyl-L-tyrosyl-L-lysyl-L-asparaginyl-L-phenylalanyl-L-phenylalanyl-L-tryptophyl-L-lysyl-L-threonyl-L-phenylalanyl-L-threonyl-L-seryl-L-tyrosine]”: the “blood plasma growth hormone, average of treated rats” value in the assay with growth hormone is 80.1 ± 9.0 × 10^-9 g GH/ml. The “inhibiting growth hormone release” value in assay [1] is recorded as “active”.

Consider “H-Ala-Gly-Cys-Lys-Asn-Phe-Phe-Trp-Lys-Thr-Phe-Thr-Ser-Cys-OH (H-AGCKNFFWKTFTSC-OH; ends and bridges not checked) [linear form of somatostatin, synthesized by solid phase methodology]”, for which the “inhibition of secretion/release of growth hormone (somatotropin)” value in the assay with growth hormone (GH) is “same biological activity as the somatostatin obtained from a natural source”.

Turning to `C[C@H](N)C(=O)NCC(=O)N[C@H]1CSSC[C@@H](C(=O)O)NC(=O)[C@H](CO)NC(=O)[C@H]([C@@H](C)O)NC(=O)[C@H](Cc2ccccc2)NC(=O)[C@H]([C@@H](C)O)NC(=O)[C@H](CCCCN)NC(=O)[C@H](Cc2c[nH]c3ccccc23)NC(=O)[C@H](Cc2ccccc2)NC(=O)[C@H](Cc2ccccc2)NC(=O)[C@H](CC(N)=O)NC(=O)[C@H](CCCCN)NC1=O` [Somatostatin], in the assay with growth hormone (GH), the “inhibition of secretion/release of growth hormone (somatotropin)” value was “inhibit the secretion of the hormone somatotropin”.

As to “(Ala^3,Ala^14)-SRIF: somatostatin analog described in U.S. Pat. No. 3,842,066 (AGAKNFFWKTFTSA; Somatostatin-14; UniProt P61278 103-116, looked up, variant C3A C14A)”, the “inhibition of secretion/release of growth hormone (somatotropin)” value in the assay with growth hormone (GH) is given as “inhibiting the release of growth hormone”.

The values are drawn from patent publication US3988308A, “(Tyr^3, Tyr^14)-SRIF and intermediates” (American Home Products Corporation, priority 1974, dated 1976).
